Reference: PubChem BioAssay (NCI)
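Abbreviation: GI50, concentration required for 50% inhibition of growth. TGI denotes the concentration required for complete inhibition of growth.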

What was measured:
Experiment in all cases: growth of human tumour cells (NCI), 384-well format
[1] = test system: TK-10 renal
[2] = test system: M14 melanoma
[3] = test system: ACHN renal
[4] = test system: DU-145 prostate
[5] = test system: NCI-H23 lung
[6] = test system: SF-295 CNS
[7] = test system: COLO 205 colon
[8] = test system: SNB-75 CNS
[9] = test system: SN12C renal
[10] = test system: 786-0 renal
[11] = test system: HOP-62 NSCLC
[12] = test system: CAKI-1 renal
[13] = test system: UACC-62 melanoma
[14] = test system: NCI/ADR-RES ovarian
[15] = test system: UACC-257 melanoma
[16] = test system: OVCAR-4 ovarian
[17] = test system: KM12 colon
[18] = test system: HOP-92 NSCLC
[19] = test system: LOX IMVI melanoma
[20] = test system: EKVX NSCLC
[21] = test system: HCT-15 colon
[22] = test system: IGROV1 ovarian
[23] = test system: A498 renal
[24] = test system: HT29 colon
[25] = test system: MALME-3M melanoma
[26] = test system: NCI-H226 lung
[27] = test system: OVCAR-5 ovarian
[28] = test system: UO-31 renal
[29] = test system: SK-MEL-28 melanoma

O=C(c1c(F)ccc(NS(=O)(=O)N2CC[C@@H](F)C2)c1F)c1c[nH]c2ncc(-c3cnc(C4CC4)nc3)cc12
GI50 [1]: 11.8 µM | TGI [1]: 35.4 µM | GI50 [2]: < 0.01 µM | TGI [2]: 0.0149 µM | GI50 [3]: 4.77 µM | TGI [3]: 20.7 µM | GI50 [4]: 4.58 µM | TGI [4]: 17.7 µM | GI50 [5]: 4 µM | TGI [5]: 15.3 µM | GI50 [6]: 5.27 µM | TGI [6]: 19.8 µM | GI50 [7]: < 0.01 µM | TGI [7]: 0.021 µM | GI50 [8]: 5.65 µM | TGI [8]: 17.9 µM | GI50 [9]: 7.66 µM | TGI [9]: > 100 µM | GI50 [10]: 5.62 µM | TGI [10]: 29.7 µM | GI50 [11]: 5.2 µM | TGI [11]: 20.6 µM | GI50 [12]: 3.09 µM | TGI [12]: 9.22 µM | GI50 [13]: < 0.01 µM | TGI [13]: 0.0116 µM | GI50 [14]: 19 µM | TGI [14]: 41.3 µM | GI50 [15]: < 0.01 µM | TGI [15]: 0.0246 µM | GI50 [16]: 11.2 µM | TGI [16]: 27.6 µM | GI50 [17]: 6.17 µM | TGI [17]: 18.8 µM | GI50 [18]: 4.13 µM | TGI [18]: 25.1 µM | GI50 [19]: 0.0301 µM | TGI [19]: 4.13 µM | GI50 [20]: 8.14 µM | TGI [20]: 21.6 µM | GI50 [21]: 4.8 µM | TGI [21]: 20.9 µM | GI50 [22]: 3.08 µM | TGI [22]: 13.5 µM | GI50 [23]: 6.38 µM | TGI [23]: 24.3 µM | GI50 [24]: 0.015 µM | TGI [24]: 14.5 µM | GI50 [25]: < 0.01 µM | GI50 [26]: 5.36 µM | TGI [26]: 18 µM | GI50 [27]: 8.29 µM | TGI [27]: 27.7 µM | GI50 [28]: 8.46 µM | TGI [28]: 23.5 µM | GI50 [29]: < 0.01 µM | TGI [29]: 0.0127 µM
